Source: patent publication US20230416329A1, “A PEPTIDE WITH DISULFIDE BONDS AND INHIBITORY ACTIVITY AGAINST SERINE PROTEASES, DERIVED HYBRID PEPTIDES THEREOF, AND USES THEREOF” (INSTITUTE OF MATERIA MEDICA , CHINESE ACADEMY OF MEDICAL …, priority 2020, published 2023)
Where two headings read alike, the source gives them in different places.

Tests used:
chymotrypsin = chymotrypsin (Bos taurus, UniProt P00766); assay: in vitro; conditions: isolated enzyme chymotrypsin, pH 7.8, Remaining peak area (%)/chymotrypsin
Outline: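 Peptide and 0.05 μg/μL chymotrypsin were preincubated at 37 °C for 5 min, then mixed. Aliquots taken from 1.5 up to 60.0 min were quenched with 10% TFA, and remaining peptide was measured as RP-HPLC peak area.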

DPP-IV = DPP-IV (Homo sapiens, UniProt P27487); assay: Tolerance of GLP-1 and its analogues to DPP-IV (RP-HPLC remaining peak area); assay type: in vitro ADME; conditions: peptide 25 μM, DPP-IV 0.5 ng/μL, 37° C.
Experimental: (§1) Mix by centrifugation at 8000 rpm for 30 seconds.
(2) Arrange a certain volume of 0.005 μg/μL DPP-IV solution in another sterile EP.

trypsin = molecular target: T1, trypsin (Bos taurus, UniProt P00760); assay: in vitro; conditions: isolated enzyme trypsin, pH 7.8
T1 sequence (P00760 24-246): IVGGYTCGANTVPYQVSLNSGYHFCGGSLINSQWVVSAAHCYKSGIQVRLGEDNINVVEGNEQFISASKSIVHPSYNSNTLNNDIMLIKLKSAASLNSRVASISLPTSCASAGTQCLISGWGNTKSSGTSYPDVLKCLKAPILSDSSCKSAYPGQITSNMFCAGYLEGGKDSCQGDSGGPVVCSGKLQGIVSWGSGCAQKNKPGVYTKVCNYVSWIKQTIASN
Outline: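 Peptides were preincubated for 5 min at 37 °C and then digested with 0.05 μg/μL trypsin solution (stock). Remaining intact peptide was quantified as RP-HPLC peak area.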

NEP24.11 = NEP24.11 (Homo sapiens, UniProt P08473); assay: Tolerance of GLP-1 and its analogues to NEP24.11 (RP-HPLC remaining peak area); assay type: in vitro ADME; conditions: peptide 30 μM, NEP24.11 1.0 ng/μL
Experimental: as §1
Arrange a certain volume of 0.04 μg/μL NEP24.11 enzyme solution in another sterile EP.

[1] = Stability of GLP-1 and its analogues in human serum; conditions: 25% (v/v) human serum

Sequence of DPP-IV (P27487 whole entry, species assumed): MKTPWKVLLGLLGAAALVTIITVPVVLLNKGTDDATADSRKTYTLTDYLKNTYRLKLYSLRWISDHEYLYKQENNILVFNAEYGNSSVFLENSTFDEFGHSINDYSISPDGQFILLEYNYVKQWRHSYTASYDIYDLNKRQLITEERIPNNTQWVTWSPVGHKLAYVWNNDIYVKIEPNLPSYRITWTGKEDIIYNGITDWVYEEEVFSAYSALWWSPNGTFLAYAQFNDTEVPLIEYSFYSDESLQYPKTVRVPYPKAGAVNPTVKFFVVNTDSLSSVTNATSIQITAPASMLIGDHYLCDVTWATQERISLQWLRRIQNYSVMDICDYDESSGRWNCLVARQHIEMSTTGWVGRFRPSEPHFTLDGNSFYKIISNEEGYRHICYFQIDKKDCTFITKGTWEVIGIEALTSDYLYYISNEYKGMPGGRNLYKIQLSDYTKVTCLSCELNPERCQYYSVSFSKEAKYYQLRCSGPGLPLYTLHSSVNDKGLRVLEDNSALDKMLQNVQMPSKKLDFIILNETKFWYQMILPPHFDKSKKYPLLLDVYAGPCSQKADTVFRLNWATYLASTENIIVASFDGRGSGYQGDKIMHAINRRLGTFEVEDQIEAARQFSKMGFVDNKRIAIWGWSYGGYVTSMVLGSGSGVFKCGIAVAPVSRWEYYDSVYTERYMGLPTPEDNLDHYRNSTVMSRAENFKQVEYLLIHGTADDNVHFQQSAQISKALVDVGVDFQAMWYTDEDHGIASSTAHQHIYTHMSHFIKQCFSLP
Sequence of NEP24.11 (P08473 whole entry): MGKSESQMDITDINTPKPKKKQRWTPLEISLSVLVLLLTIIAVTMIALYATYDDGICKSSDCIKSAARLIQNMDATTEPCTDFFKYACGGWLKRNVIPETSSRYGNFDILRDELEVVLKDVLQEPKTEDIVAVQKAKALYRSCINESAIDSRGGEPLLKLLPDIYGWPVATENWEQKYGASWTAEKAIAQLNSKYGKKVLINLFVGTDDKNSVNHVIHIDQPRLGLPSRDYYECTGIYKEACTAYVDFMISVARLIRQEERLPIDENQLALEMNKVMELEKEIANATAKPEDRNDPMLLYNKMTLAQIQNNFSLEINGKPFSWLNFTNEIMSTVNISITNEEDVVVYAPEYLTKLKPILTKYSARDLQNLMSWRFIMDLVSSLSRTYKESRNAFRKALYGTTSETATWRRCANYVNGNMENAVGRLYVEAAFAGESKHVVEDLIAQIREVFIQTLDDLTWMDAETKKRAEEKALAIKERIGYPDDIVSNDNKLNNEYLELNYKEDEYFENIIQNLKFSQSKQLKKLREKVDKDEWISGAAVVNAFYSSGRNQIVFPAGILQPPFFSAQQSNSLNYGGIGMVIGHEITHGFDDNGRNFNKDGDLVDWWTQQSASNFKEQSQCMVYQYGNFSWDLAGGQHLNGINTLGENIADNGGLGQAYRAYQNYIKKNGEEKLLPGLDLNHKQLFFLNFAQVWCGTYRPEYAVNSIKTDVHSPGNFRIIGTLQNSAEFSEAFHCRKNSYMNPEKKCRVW

Compound: CC[C@H](C)[C@H](NC(=O)[C@H](Cc1ccccc1)NC(=O)[C@H](CCC(=O)O)NC(=O)[C@H](CCCCN)NC(=O)[C@H](C)NC(=O)[C@H](C)NC(=O)[C@H](CCC(N)=O)NC(=O)CNC(=O)[C@H](CCC(=O)O)NC(=O)[C@H](CC(C)C)NC(=O)[C@H](Cc1ccc(O)cc1)NC(=O)[C@H](CO)NC(=O)[C@H](CO)NC(=O)[C@@H](NC(=O)[C@H](CC(=O)O)NC(=O)[C@H](CO)NC(=O)[C@@H](NC(=O)[C@H](Cc1ccccc1)NC(=O)[C@@H](NC(=O)CNC(=O)[C@H](CCC(=O)O)NC(=O)[C@H](C)NC(=O)[C@H](Cc1c[nH]cn1)NC(=O)CNC(=O)CNC(=O)[C@@H](NC(=O)[C@@H]1CCCN1C(=O)[C@@H](NC(=O)CN)[C@@H](C)CC)[C@@H](C)CC)[C@@H](C)O)[C@@H](C)O)C(C)C)C(=O)N[C@@H](C)C(=O)N[C@@H](Cc1c[nH]c2ccccc12)C(=O)N[C@@H](CC(C)C)C(=O)N[C@H](C(=O)N[C@@H](CCCCN)C(=O)NCC(=O)N[C@@H](CCCNC(=N)N)C(=O)NCC(=O)NCC(=O)N[C@@H](CCCCN)C(=O)NCC(=O)N[C@@H](CCCNC(=N)N)C(=O)N[C@H]1CSSC[C@@H](C(=O)N[C@@H](Cc2ccccc2)C(=O)N2CCC[C@H]2C(=O)O)NC(=O)[C@H]([C@@H](C)CC)NC(=O)[C@@H]2CCCN2C(=O)[C@@H]2CCCN2C(=O)[C@H]([C@@H](C)CC)NC(=O)[C@H](CO)NC(=O)[C@H](CCCCN)NC(=O)[C@H]([C@@H](C)O)NC1=O)C(C)C [D-GLP-1-BT1]
- remaining at 0.025 h, 60 μM (chymotrypsin): 67.1 ± 4.9%
- remaining at 0.05 h, 60 μM (chymotrypsin): 55.2 ± 0.6%
- remaining at 0.075 h, 60 μM (chymotrypsin): 47.1 ± 1.4%
- remaining at 0.1 h, 60 μM (chymotrypsin): 40.4 ± 1%
- remaining at 0.15 h, 60 μM (chymotrypsin): 31.3 ± 0.7%
- Remaining peak area (%)/DPP-IV (DPP-IV; 0.0 h): 100.0 ± 0.0%
- remaining at 0.5 h, 25 μM (DPP-IV; isolated DPP-IV enzyme in buffer, pH 8, 0.5 h): 88 ± 6.2%
- remaining at 2 h, 25 μM (DPP-IV; isolated DPP-IV enzyme in buffer, pH 8, 2.0 h): 95.9 ± 2.3%
- remaining at 4 h, 25 μM (DPP-IV; isolated DPP-IV enzyme in buffer, pH 8, 4.0 h): 96.9 ± 2%
- remaining at 8 h, 25 μM (DPP-IV; isolated DPP-IV enzyme in buffer, pH 8, 8.0 h): 92 ± 3.9%
- remaining at 12 h, 25 μM (DPP-IV; isolated DPP-IV enzyme in buffer, pH 8, 12.0 h): 79 ± 4.6%
- remaining at 0.025 h, 60 μM (trypsin): 96.9 ± 3.1%
- remaining at 0.05 h, 60 μM (trypsin): 100 ± 2.5%
- remaining at 0.075 h, 60 μM (trypsin): 96.5 ± 2.1%
- remaining at 0.1 h, 60 μM (trypsin): 97.3 ± 3.6%
- remaining at 0.15 h, 60 μM (trypsin): 98 ± 3.1%
- remaining at 0.25 h, 60 μM (trypsin): 95.9 ± 3.2%
- remaining at 0.5 h, 60 μM (trypsin): 98.1 ± 4.4%
- remaining at 1 h, 60 μM (trypsin): 91 ± 7.6%
- Remaining peak area (%)/NEP24.11 (NEP24.11; 0.0 h, 37° C.): 100.0 ± 0.0%
- remaining at 0.5 h, 30 μM (NEP24.11; isolated NEP24.11 enzyme in buffer, pH 7.4, 0.5 h, 37° C.): 80.3 ± 3.6%
- remaining at 2 h, 30 μM (NEP24.11; isolated NEP24.11 enzyme in buffer, pH 7.4, 2.0 h, 37° C.): 85.8 ± 2.7%
- remaining at 4 h, 30 μM (NEP24.11; isolated NEP24.11 enzyme in buffer, pH 7.4, 4.0 h, 37° C.): 80.1 ± 2.1%
- remaining at 8 h, 30 μM (NEP24.11; isolated NEP24.11 enzyme in buffer, pH 7.4, 8.0 h, 37° C., read-out: Remaining peak area (%)/NEP24.11): 78.2 ± 3.9%
- remaining at 8 h, 30 μM (NEP24.11; isolated NEP24.11 enzyme in buffer, pH 7.4, 8 hours, read-out: remaining amount after NEP24.11 hydrolysis): ~80%
- Remaining peak area (%)/human serum ([1]; 0.0 h, peptide 0.03 mM, 37° C.): 100.0 ± 0.0%
- serum stability (in words) [1]: good serum stability
- remaining at 0.5 h, 0.03 mM ([1]; human, pH 7): 88.2%
- remaining at 2 h, 0.03 mM ([1]; human, pH 7): 92 ± 5.9%
- remaining at 4 h, 0.03 mM ([1]; human, pH 7): 78.7 ± 5.7%
- remaining at 8 h, 0.03 mM ([1]; human, pH 7): 58.2%
- remaining at 12 h, 0.03 mM ([1]; human, pH 7): 43.6 ± 0.3%
